Data published in patent US8110371B2, “Identifying organ damage” (The University Court of the University of Edinburgh, priority 2007, dated 2012).

Assays:
[1] = NAC as antidote for APAP overdose; cited from earlier work
[2] = Exosomal protein concentration of urine in paracetamol overdose patients (BCA protein assay); format: in vivo, human; conditions: 4 hours after paracetamol overdose
Procedure: (§1) Six normal male volunteers (aged 23-40, MREC ethics approval number 06/MRE00/67) provided urine samples in sterile 50 ml plastic containers. To each urine sample a protease inhibitor was added (50:1 of 1 mM Leupeptin). […] 3 out of 6 of these patients had elevated serum alanine transaminase (ALT) 24 hours after admission indicating significant liver injury. The samples were centrifuged at 15000×g for 15 minutes at 4° C. to pellet the urinary sediment. The ‘15000×g supernatant’ was then centrifuged at 100 000 rpm for 1 hour at 4° C. to obtain low density urinary exosome pellets. The 100 000 rpm supernatant was decanted and replaced with an additional ‘15 000×g supernatant’ and ultracentrifuged again. The ultracentrifugation step was repeated 4-6 more times to harvest the exosome pellets from 18-24 ml of 15 000×g supernatant. Pellets were resuspended in 50 μl isolation solution (10 mM triethanolamine/250 mM sucrose (pH 7.6)).
(§2) The amount of urine and MP protein was determined using the BCA™ Protein Assay Kit (Pierce, USA) and following the manufacturer's instructions. 20 μg of normal urine exosome samples were loaded per well. Loading amounts for each of the paracetemol overdose samples were normalised for urinary creatinine to account for differences in urine concentration. […]

[3] = tested on: c-Jun; test: Western blot for c-Jun in urine exosomes of paracetamol overdose patients; format: in vivo, human; conditions: following paracetamol-induced liver injury in humans, FIG. 7
Procedure: as §1, §2

CC(=O)N[C@@H](CS)C(=O)O [N-acetylcysteine]
patients with adverse reactions [1]: around 15%

CC(=O)Nc1ccc(O)cc1 [paracetamol, N-(4-hydroxyphenyl)ethanamide]
increase in exosomal proteinuria compared to normal ([2]; pooled sample from 3 patients with organ injury): ~37 fold
increase in exosomal protein compared to normal healthy individuals ([2]; pooled samples from 3 patients without organ injury): about 7 fold
urinary microparticle concentration of C-Jun protein [3]: increased
